Measurements: PMC10683025, “Discovery of a Hydroxylamine-Based Brain-Penetrant EGFR Inhibitor for Metastatic Non-Small-Cell Lung Cancer” (Journal of Medicinal Chemistry, 2023)

Legend:
[1] = test system: Salmonella strains (TA98, TA100, TA1537, and TA1535); conditions: ± rat liver S9, 4 strains; 9 valid up to 50 μM
Description: Compounds were assessed for mutagenicity at the Eurofins Panlabs in 384-well plates using four Salmonella strains: TA98, to probe for frameshift mutation (with quercetin as control), TA100 and TA1535, to probe for base pair insertions/deletions (with streptozotocin as control), and TA1537, to probe for frameshift mutations (with aminacridine as control) as previously described.[78] Each compound was incubated at 37 °C for 96 h at four different concentrations (5, 10, 50, and 100 μM), with each concentration tested using 48 replicates, both with and without rat liver S9 metabolic activation. A concurrent bacterial cytotoxicity assay was run at 0.6, 1.2, 2.5, 5, 10, 25, 50, and 100 μM to rule out false negatives. Bacterial cytotoxicity was expressed as percent of control growth (OD650). Compounds with growth of less than 60% control were flagged and considered bacterial cytotoxic. […] Significances of the positive counts between the treatment and control were determined using a one-tailed Fisher’s exact test.

[2] = Oral CNS pharmacokinetic assessment; type: in vivo, CD1 mice; conditions: male, CD1, brain/plasma, Mouse 40 mg/kg (PO)
Description: Animal experiments were performed at Pharmaron, Inc. and animal use was approved by Pharmaron’s Institutional Animal Care and Use Committee (IACUC) in Pharmaron (Pharmaron IACUC, Protocol #PK-M-07182022, #PK-R-06012022, and #ON-CELL-XEN-06012022) following the guidance of AAALAC. Six- to eight-week-old male Sprague-Dawley rats (approximately 200–300 g) obtained from Si Bei Fu Laboratory Animal Technology Co., six- to eight-week-old male CD1 mice (approximately 20–30 g) obtained from Si Bei Fu Laboratory Animal Technology Co., and six- to eight-week-old female BALB/c nude mice (approximately 20–30 g) obtained from Si Bei Fu Laboratory Animal Technology Co., were used in the pharmacokinetic studies. Six- to eight-week-old female BALB/c nude mice (approximately 18–22 g) obtained from Beijing Anikeeper Biotech Co., Ltd. were used in the intracranial PDX study. […]
Oral CNS pharmacokinetic assessment of 9 was done by oral gavage (formulation: 1% methylcellulose) followed by blood and brain sampling at 7 time points (0.25, 0.5, 1, 2, 4, 8, 24 h post dose) with n = 3 animals per time point (n = 21 total). […] Concentrations of 9 in the plasma and brain samples were determined using LC-MS/MS and WinNonlin 8.3 (Phoenix) was used for pharmacokinetic calculations. […]

[3] = target: T1, ABL1(H396P)-phosphorylated (Homo sapiens, UniProt P00519, H396P); assay: KINOMEScan; type: binding; conditions: read-out: Percent Control
T1 construct: purchased Eurofins DiscoverX
Description: (§1) Percent control was mapped onto the kinome tree using TREEspot.

[4] = target: T2, ABL1(Q252H)-nonphosphorylated (Homo sapiens, UniProt P00519, Q252H); assay: KINOMEScan; type: binding; conditions: read-out: Percent Control
T2 construct: purchased Eurofins DiscoverX
Description: as §1

[5] = target: T3, ABL1(Y253F)-phosphorylated (Homo sapiens, UniProt P00519, Y253F); assay: KINOMEScan; type: binding; conditions: read-out: Percent Control
T3 construct: purchased Eurofins DiscoverX
Description: as §1

[6] = target: T4, ACVR2B (Homo sapiens, UniProt Q13705); assay: KINOMEScan; type: binding; conditions: read-out: Percent Control
T4 construct: purchased Eurofins DiscoverX (KINOMEscan)
T4 sequence (Q13705 19-512): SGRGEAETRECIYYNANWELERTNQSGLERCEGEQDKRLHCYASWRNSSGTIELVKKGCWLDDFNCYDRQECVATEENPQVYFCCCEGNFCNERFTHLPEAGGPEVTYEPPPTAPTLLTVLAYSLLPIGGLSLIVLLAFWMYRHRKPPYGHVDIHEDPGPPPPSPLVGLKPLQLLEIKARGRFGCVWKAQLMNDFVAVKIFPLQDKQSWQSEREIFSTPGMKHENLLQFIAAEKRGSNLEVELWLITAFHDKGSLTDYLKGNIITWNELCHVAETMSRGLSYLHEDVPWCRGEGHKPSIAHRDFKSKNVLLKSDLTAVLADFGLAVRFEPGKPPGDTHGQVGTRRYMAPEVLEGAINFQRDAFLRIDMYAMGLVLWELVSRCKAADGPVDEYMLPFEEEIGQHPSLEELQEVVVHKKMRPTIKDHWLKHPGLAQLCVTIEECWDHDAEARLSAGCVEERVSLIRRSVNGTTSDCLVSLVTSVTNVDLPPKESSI
Description: as §1

[7] = target: T5, ADCK4 (Homo sapiens, UniProt Q96D53); assay: KINOMEScan; type: binding; conditions: ADCK4, 1 µM; read-out: Percent Control
T5 construct: purchased Eurofins DiscoverX (KINOMEscan)
T5 sequence (Q96D53 whole entry): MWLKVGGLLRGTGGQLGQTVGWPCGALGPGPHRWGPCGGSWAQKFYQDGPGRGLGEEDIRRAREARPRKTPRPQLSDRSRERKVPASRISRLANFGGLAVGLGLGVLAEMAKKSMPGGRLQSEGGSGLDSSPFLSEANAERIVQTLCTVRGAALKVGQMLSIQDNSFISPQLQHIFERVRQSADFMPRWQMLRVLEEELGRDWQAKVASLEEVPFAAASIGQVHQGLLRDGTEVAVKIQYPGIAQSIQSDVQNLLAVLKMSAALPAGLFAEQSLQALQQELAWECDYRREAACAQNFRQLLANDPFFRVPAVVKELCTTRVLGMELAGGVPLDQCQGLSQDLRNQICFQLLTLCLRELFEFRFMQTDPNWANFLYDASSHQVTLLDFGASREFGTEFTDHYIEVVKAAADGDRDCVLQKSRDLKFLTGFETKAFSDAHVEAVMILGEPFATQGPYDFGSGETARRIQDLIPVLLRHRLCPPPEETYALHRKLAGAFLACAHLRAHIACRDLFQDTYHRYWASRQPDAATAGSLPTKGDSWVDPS
Description: as §1

[8] = target: T6, ALK(C1156Y) (Homo sapiens, UniProt Q9UM73, C1156Y); assay: KINOMEScan; type: binding; conditions: read-out: Percent Control
T6 construct: purchased Eurofins DiscoverX (KINOMEscan)
T6 sequence (Q9UM73 19-1620 C1156Y): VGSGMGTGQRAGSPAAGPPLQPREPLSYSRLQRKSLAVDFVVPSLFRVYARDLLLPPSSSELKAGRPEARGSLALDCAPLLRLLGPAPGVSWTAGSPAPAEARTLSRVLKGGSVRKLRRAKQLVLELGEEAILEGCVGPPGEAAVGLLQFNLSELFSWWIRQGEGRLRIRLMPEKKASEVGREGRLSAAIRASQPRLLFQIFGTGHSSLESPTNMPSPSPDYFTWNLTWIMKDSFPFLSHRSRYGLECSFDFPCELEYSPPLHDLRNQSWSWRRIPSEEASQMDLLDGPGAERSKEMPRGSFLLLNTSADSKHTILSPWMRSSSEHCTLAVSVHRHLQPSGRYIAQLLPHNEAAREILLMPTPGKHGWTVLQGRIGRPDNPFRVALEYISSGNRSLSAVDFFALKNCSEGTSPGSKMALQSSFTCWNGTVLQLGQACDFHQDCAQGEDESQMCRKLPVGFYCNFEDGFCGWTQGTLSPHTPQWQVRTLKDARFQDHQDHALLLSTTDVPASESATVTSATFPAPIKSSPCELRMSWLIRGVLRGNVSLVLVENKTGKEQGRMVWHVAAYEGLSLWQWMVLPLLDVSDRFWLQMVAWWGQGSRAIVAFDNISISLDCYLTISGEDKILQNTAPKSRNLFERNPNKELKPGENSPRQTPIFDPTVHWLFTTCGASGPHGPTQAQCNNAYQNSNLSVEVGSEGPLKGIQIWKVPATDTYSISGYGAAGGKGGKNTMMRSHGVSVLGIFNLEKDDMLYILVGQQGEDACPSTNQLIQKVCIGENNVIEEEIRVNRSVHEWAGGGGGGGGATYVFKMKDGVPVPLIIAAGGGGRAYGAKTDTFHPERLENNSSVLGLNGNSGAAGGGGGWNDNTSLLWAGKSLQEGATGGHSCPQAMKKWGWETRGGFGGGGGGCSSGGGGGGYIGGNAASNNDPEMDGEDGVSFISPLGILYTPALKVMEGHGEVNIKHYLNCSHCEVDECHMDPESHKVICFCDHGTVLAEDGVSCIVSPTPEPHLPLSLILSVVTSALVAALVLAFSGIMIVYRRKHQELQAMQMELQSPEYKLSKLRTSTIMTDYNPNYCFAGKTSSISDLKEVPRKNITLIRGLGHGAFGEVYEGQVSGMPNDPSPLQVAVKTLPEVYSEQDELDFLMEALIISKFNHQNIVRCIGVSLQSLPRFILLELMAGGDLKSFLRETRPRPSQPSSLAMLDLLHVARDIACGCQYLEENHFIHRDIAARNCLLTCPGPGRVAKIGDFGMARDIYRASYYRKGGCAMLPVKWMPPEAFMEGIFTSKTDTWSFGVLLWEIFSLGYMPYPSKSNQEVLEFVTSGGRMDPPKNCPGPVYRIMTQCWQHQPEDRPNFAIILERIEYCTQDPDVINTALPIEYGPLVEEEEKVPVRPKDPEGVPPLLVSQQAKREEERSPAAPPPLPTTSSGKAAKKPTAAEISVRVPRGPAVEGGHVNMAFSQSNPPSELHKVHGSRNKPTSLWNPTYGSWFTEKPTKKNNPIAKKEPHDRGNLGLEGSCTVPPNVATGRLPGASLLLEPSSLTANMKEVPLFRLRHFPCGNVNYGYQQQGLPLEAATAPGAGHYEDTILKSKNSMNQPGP
Description: as §1

[9] = target: T7, AURKB (Homo sapiens, UniProt Q96GD4); assay: KINOMEScan; type: binding; conditions: read-out: Percent Control
T7 construct: purchased Eurofins DiscoverX (KINOMEscan)
T7 sequence (Q96GD4 whole entry): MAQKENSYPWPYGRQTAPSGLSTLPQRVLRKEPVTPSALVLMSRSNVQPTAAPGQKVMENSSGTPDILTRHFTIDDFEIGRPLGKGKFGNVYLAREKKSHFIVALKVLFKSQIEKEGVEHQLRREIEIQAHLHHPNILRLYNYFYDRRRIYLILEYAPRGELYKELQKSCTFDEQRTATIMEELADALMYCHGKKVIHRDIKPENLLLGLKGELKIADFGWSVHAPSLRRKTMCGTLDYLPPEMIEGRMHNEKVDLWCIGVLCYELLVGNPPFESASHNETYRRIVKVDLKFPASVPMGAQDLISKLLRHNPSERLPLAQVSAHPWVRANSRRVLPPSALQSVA

[10] = target: T8, BIKE (Homo sapiens, UniProt Q9NSY1); assay: KINOMEScan; type: binding; conditions: read-out: Percent Control
T8 construct: purchased Eurofins DiscoverX (KINOMEscan)
T8 sequence (Q9NSY1 whole entry): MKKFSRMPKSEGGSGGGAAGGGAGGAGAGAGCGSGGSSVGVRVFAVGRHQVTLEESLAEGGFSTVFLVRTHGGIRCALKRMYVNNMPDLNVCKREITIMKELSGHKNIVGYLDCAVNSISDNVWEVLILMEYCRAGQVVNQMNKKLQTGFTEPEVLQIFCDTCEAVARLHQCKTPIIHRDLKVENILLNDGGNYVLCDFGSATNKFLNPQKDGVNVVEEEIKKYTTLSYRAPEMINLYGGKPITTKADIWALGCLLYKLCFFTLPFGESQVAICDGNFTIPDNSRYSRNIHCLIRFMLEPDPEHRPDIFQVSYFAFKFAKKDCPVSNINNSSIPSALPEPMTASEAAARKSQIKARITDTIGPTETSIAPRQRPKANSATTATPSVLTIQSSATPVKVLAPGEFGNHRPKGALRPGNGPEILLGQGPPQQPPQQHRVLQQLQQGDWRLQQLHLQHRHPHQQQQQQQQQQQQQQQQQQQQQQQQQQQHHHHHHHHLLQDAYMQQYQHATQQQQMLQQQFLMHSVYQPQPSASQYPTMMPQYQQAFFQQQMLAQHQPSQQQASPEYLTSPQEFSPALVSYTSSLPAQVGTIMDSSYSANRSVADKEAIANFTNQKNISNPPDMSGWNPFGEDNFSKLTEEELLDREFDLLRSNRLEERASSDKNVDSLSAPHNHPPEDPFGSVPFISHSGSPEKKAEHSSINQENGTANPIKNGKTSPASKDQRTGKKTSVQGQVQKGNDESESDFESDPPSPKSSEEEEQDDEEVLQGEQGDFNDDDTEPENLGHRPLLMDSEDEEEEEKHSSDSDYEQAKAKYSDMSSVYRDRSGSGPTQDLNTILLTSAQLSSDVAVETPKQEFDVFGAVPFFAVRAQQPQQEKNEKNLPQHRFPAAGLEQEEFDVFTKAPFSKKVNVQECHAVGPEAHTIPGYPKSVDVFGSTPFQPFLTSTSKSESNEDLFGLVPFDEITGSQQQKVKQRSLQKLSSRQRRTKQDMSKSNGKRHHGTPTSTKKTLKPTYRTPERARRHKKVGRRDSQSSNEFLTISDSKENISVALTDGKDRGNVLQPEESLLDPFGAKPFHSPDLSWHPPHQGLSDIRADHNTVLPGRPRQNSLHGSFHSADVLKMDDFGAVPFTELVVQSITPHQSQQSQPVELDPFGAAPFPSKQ
Description: as §1

[11] = target: T9, YANK1 (Homo sapiens, UniProt Q8WU08); assay: KINOMEScan; type: binding; conditions: YANK1, 1 µM; read-out: Percent Control
T9 construct: purchased Eurofins DiscoverX (KINOMEScan service)
T9 sequence (Q8WU08 whole entry): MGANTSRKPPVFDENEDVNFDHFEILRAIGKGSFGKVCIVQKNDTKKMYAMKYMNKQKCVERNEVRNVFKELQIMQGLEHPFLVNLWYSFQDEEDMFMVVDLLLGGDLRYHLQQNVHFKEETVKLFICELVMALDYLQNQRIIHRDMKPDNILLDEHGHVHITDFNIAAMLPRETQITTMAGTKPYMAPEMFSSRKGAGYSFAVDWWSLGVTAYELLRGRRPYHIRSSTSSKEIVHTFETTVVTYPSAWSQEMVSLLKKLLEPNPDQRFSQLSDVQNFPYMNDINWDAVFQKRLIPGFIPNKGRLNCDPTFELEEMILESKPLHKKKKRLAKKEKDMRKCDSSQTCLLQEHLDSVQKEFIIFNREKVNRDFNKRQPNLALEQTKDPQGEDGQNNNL
Description: as §1

[12] = target: T10, DRAK1 (Homo sapiens, UniProt Q9UEE5); assay: KINOMEScan; type: binding; conditions: DRAK1, 1 μM; read-out: Percent Control
T10 construct: purchased Eurofins DiscoverX (contract assay)
T10 sequence (Q9UEE5 1-414): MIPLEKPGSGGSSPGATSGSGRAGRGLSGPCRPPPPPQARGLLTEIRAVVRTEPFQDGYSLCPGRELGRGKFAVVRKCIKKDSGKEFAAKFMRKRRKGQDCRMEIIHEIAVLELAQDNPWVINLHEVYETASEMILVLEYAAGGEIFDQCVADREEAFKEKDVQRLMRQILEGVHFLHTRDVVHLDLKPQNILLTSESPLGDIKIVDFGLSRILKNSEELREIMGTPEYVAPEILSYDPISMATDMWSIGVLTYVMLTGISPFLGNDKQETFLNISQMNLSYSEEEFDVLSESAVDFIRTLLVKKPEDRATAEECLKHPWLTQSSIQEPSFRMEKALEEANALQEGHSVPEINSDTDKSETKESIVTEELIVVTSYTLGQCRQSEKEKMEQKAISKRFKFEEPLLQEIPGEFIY
Description: as §1

Structure (SMILES)	AMES [1]	Kp at 24 h ([2]; read-out: Kp brain (AUCinf))	Kp uu at 24 h ([2]; read-out: Kp,uu brain (AUCinf))	remaining binding at 1 µM [3] [%]	remaining binding at 1 µM [4] [%]	remaining binding at 1 µM [5] [%]	remaining binding at 1 µM [6] [%]	remaining binding at 1 µM [7] [%]	remaining binding at 1 µM [8] [%]	remaining binding at 1 µM [9] [%]	remaining binding at 1 µM [10] [%]	remaining binding at 1 µM [11] [%]	remaining binding at 1 µM [12] [%]
COc1cc2ncnc(Nc3cccc(Cl)c3F)c2cc1OCCON1CCOCC1 [Compound 7, N-(3-Chloro-2-fluorophenyl)-7-methoxy-6-(2-(morpholinooxy)ethoxy)quinazolin-4-amine]	Negative	–	–	–	–	–	–	–	–	–	–	–	–
COc1cc2ncnc(Nc3cccc(Cl)c3F)c2cc1OCCON1CCN(C)CC1 [Compound 9, N-(3-Chloro-2-fluorophenyl)-7-methoxy-6-(2-((4-methylpiperazin-1-yl)oxy)ethoxy)quinazolin-4-amine]	–	0.77	0.45	6.6	6.7	6.6	100	79	100	84	99	94	8.3
